Measurements as given in ChEMBL document CHEMBL5500412, “Discovery of Highly Selective, Potent, Covalent, and Orally Bioavailable Factor XIIa Inhibitors for the Treatment of Thrombo-Inflammation” (J Med Chem, 2024).
Calls of active or inactive are those of the source. The rule behind the calls is not given here.

Columns and labels:
Coagulation factor XII [1] = biological target: T1, Coagulation factor XII (Homo sapiens, UniProt P00748); test: Inhibition of FXIIa (unknown origin) using H-D-Pro-Phe-Arg-pNA as substrate incubated for 20 mins followed by substrate addition by spectrophotometric analysis
T1 sequence (P00748 whole entry): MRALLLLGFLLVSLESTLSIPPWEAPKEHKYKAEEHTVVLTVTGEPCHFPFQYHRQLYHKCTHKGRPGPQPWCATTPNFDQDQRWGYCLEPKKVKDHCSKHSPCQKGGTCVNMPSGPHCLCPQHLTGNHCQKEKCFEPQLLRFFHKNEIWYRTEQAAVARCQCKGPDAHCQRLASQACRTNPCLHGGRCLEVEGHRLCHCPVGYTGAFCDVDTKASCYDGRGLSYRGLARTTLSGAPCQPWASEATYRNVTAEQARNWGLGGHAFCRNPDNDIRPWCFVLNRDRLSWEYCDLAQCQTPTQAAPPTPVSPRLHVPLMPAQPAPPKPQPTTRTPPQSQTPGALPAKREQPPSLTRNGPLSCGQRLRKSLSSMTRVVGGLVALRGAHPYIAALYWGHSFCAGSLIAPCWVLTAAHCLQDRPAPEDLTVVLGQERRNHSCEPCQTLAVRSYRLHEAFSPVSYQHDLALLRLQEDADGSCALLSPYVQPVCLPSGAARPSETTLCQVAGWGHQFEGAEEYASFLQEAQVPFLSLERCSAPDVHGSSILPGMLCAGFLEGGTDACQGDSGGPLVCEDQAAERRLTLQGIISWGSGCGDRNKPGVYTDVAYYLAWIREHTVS

Prothrombin = Prothrombin (Homo sapiens, UniProt P00734); test: Inhibition of thrombin (unknown origin) using H-D-Phe-Pip-Arg-pNA-2HCl as substrate incubated for 20 mins followed by substrate addition by spectrophotometric analysis
Plasma kallikrein = Plasma kallikrein (Homo sapiens, UniProt P03952); test: Inhibition of PKal (unknown origin) using H-D-Pro-Phe-Arg-pNA-2HCl as substrate incubated for 20 mins followed by substrate addition by spectrophotometric analysis
Coagulation factor XI = Coagulation factor XI (Homo sapiens, UniProt P03951); test: Inhibition of FXIa (unknown origin) using p-Glu-Pro-Arg-pNA.HCl as chromogenic substrate incubated for 20 mins followed by substrate addition by spectrophotometric analysis
Trypsin = Trypsin (Homo sapiens, UniProt P07477+P07478+P35030); test: Inhibition of trypsin (unknown origin) using Bz-lle-Glu(gamma-OR)-Gly-Arg-pNA.HCl as chromogenic substrate incubated for 20 mins followed by substrate addition by spectrophotometric analysis; format: protein assay
Chymotrypsin = Chymotrypsin (Homo sapiens, UniProt Q99895+P17538+P40313+Q6GPI1); test: Inhibition of Chymotrypsin (unknown origin) using N-Suc-Ala-Ala-Pro-Phe-pNA as chromogenic substrate incubated for 20 mins followed by substrate addition by spectrophotometric analysis; format: protein assay
[2] = biological target: Tissue-type plasminogen activator (Homo sapiens, UniProt P00750); test: Inhibition of tPA (unknown origin) using H-D-lle-Pro-Arg-pNA-2HCl as chromogenic substrate incubated for 20 mins followed by substrate addition by spectrophotometric analysis
[3] = Selectivity index, ratio of IC50 for thrombin (unknown origin) to IC50 for FXIIa (unknown origin)
[4] = Selectivity index, ratio of IC50 for PKal (unknown origin) to IC50 for FXIIa (unknown origin)
[5] = Selectivity index, ratio of IC50 for FXIa (unknown origin) to IC50 for FXIIa (unknown origin)
[6] = Selectivity index, ratio of IC50 for FXa (unknown origin) to IC50 for FXIIa (unknown origin)
[7] = Selectivity index, ratio of IC50 for trypsin (unknown origin) to IC50 for FXIIa (unknown origin)
[8] = Selectivity index, ratio of IC50 for chymotrypsin (unknown origin) to IC50 for FXIIa (unknown origin)
[9] = Selectivity index, ratio of IC50 for plasmin (unknown origin) to IC50 for FXIIa (unknown origin)
[10] = Selectivity index, ratio of IC50 for tPA (unknown origin) to IC50 for FXIIa (unknown origin)
[11] = biological target: T2, Coagulation factor XII (Homo sapiens) (UniProt P00748); test: Covalent inhibition of FXIIa (unknown origin) at 20 to 40 nM measured after 10 mins; conditions: dose 20-40 nM
T2 sequence (whole entry): T1 sequence (P00748 whole entry)

Coagulation factor XII [12] = biological target: T1, Coagulation factor XII; test: Binding affinity to FXIIa (unknown origin) assessed as inhibition constant using H-D-Pro-Phe-Arg-pNA.2HCl as substrate by spectrophotometric analysis
[13] = biological target: T2, Coagulation factor XII (Homo sapiens); test: Binding affinity to FXIIa (unknown origin) assessed as inactivation rate using H-D-Pro-Phe-Arg-pNA.2HCl as substrate by spectrophotometric analysis
[14] = biological target: T2, Coagulation factor XII (Homo sapiens); test: Inhibition of FXIIa (unknown origin) using H-D-Pro-Phe-Arg-pNA as substrate preincubated for 20 mins followed by 100 fold dilution upto 120 mins then substrate addition for 60 mins by jump dilution assay; conditions: time <= 200.0 min
[15] = biological target: T2, Coagulation factor XII (Homo sapiens); test: Binding affinity to FXIIa (unknown origin) assessed as Kinact/Ki using H-D-Pro-Phe-Arg-pNA.2HCl as substrate by spectrophotometric analysis
RAW264.7 [16] = test: Antiinflammatory activity in mouse RAW264.7 cells assessed as inhibition of LPS-induced IL-1 beta expression at 10 uM preincubated for 12 hrs followed by LPS stimulation and measured after 12 hrs by real time quantitative RT-PCR assay; format: functional, cell-based; conditions: time 24.0 hrs
RAW264.7 [17] = test: Antiinflammatory activity in mouse RAW264.7 cells assessed as inhibition of LPS-induced IL-6 expression at 10 uM preincubated for 12 hrs followed by LPS stimulation and measured after 12 hrs by real time quantitative RT-PCR assay; format: functional, cell-based; conditions: time 24.0 hrs
Plasma [18] = test: Anticoagulant activity in human plasma assessed as prolongation of activated partial thromboplastin time at 300 uM incubated for 2 mins by aPTT reagent based assay relative to control; format: functional
Plasma [19] = test: Anticoagulant activity in human plasma assessed as prolongation of […] time at 300 uM incubated for 2 mins by PT reagent based assay relative to control; format: functional
Plasma [20] = test: Anticoagulant activity in human plasma assessed as prolongation of activated partial thromboplastin time incubated for 2 mins by aPTT reagent based assay; format: functional
Plasma [21] = test: Anticoagulant activity in non-activated human plasma at 10 to 25 uM measured after 30 mins; format: functional, cell-free; conditions: dose 10-25 µM

Plasma kallikrein, sequence (P03952 20-390 limits assumed): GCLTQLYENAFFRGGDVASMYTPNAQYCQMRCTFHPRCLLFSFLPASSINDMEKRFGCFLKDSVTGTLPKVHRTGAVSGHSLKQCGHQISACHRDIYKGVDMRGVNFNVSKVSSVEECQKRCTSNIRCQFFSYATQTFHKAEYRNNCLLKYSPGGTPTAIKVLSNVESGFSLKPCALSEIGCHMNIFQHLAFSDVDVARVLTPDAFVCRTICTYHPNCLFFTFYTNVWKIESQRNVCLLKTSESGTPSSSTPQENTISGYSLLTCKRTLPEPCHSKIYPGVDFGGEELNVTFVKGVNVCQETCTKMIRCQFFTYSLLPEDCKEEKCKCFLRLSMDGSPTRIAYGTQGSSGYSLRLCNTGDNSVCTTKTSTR
Plasma kallikrein, sequence (P03952 391-638 limits assumed): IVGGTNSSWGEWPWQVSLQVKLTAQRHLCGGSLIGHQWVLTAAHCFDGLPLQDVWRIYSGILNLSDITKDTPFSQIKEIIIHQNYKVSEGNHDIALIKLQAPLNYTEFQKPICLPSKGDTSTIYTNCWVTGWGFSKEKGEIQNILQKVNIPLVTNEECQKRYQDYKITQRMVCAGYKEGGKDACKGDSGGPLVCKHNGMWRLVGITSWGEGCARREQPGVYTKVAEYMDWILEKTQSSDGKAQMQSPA
Coagulation factor XI, sequence (P03951 19-387 limits assumed): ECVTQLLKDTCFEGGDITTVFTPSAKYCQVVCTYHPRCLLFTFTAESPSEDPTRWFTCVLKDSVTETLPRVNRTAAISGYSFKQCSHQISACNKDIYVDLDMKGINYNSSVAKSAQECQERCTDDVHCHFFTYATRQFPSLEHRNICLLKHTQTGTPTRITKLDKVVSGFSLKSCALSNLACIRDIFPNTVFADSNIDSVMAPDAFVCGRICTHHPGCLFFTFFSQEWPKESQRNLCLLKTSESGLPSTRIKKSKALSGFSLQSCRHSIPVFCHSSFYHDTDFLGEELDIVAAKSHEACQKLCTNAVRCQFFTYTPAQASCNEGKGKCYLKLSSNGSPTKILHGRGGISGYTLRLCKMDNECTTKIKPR
Coagulation factor XI, sequence (P03951 388-625 limits assumed): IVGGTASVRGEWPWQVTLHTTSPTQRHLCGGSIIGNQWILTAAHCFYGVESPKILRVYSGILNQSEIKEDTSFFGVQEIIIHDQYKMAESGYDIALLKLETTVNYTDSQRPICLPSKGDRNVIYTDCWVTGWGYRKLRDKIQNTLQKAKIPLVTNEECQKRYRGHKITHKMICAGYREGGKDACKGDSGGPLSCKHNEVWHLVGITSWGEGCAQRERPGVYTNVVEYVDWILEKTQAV
Tissue-type plasminogen activator, sequence (P00750 whole entry): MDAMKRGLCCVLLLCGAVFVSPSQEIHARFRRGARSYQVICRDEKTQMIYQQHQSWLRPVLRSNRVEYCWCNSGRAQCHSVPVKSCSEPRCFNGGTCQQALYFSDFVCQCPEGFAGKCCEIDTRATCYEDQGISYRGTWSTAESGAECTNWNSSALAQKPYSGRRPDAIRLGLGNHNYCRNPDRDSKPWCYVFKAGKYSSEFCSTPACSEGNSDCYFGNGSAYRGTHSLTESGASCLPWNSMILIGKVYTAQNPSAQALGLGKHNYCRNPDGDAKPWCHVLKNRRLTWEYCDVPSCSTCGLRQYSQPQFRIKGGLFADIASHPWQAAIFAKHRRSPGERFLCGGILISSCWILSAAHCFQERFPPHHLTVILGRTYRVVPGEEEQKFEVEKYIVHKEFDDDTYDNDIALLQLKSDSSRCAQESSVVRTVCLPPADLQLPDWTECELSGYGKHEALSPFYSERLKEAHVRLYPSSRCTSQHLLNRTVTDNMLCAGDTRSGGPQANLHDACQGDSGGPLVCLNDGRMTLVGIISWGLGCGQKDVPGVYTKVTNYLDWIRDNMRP

Q: For Nc1nc(-c2ccccn2)nn1C(=O)c1cccc2ccccc12, which IC50 (Coagulation factor XII [1]) is on record?
A: 0.035 µM

Q: And the IC50 (Prothrombin)?
A: 0.36 µM

Q: And the IC50 (Plasma kallikrein)?
A: > 25 µM

Q: And the IC50 (Coagulation factor XI)?
A: > 25 µM

Q: What about the IC50 (Trypsin) of the same compound?
A: > 5 µM

Q: And the IC50 (Chymotrypsin)?
A: > 5 µM

Q: And the IC50 [2]?
A: > 5 µM

Q: What about the Ratio IC50 [3] of the same compound?
A: 10

Q: What about the Ratio IC50 [4] of the same compound?
A: > 710

Q: And the Ratio IC50 [5]?
A: > 710

Q: And the Ratio IC50 [6]?
A: > 140

Q: What about the Ratio IC50 [7] of the same compound?
A: > 140

Q: And the Ratio IC50 [8]?
A: > 140

Q: What about the Ratio IC50 [9] of the same compound?
A: > 140

Q: What about the Ratio IC50 [10] of the same compound?
A: > 140

Q: And the inhibition [11]?
A: Active

Q: What about the Ki (Coagulation factor XII [12]) of the same compound?
A: 0.0435 µM

Q: What about the Kinact [13] of the same compound?
A: 0.026 min⁻¹

Q: What about the inhibition [14] of the same compound?
A: inactive

Q: And the K [15]?
A: 5.96 10^5/M/min

Q: And the Activity (RAW264.7 [16])?
A: Active

Q: What about the Activity (RAW264.7 [17]) of the same compound?
A: Active

Q: What about the Activity (Plasma [18]) of the same compound?
A: 303%

Q: What about the Activity (Plasma [19]) of the same compound?
A: 17%

Q: And the EC1.5 (Plasma [20])?
A: 145 µM

Q: And the Activity (Plasma [21])?
A: inactive
